Data on two compounds can be found in patent US20250032525A1 (priority 2021, published 2025).

One data set relates to OVCAR-5. The conditions noted are these: OVCAR-5, NCI-60 database, sulforhodamine B; read-out: Cytotoxic IC50; cited from earlier work.
The next data set has as its system CCRF-CEM. Conditions: NCI-60 database, sulforhodamine B, read-out: Cytotoxic IC50; cited from earlier work.
A further data set concerns HOP-62. The conditions noted are these: HOP-62, NCI-60 database, sulforhodamine B; read-out: Cytotoxic IC50; cited from earlier work.
The next data set relates to PANC-1. Conditions: PANC-1, from Varbanov et al. (2017), PrestoBlue; read-out: Cytotoxic IC50; cited from earlier work.
A short description of data set [1]: In vivo toxicity (dose-finding) studies. Details: species or system FVB mice. Conditions: 0.25 mg/kg given repeatedly, later experiments.
In data set [2] the test system is HT-29 human colon adenocarcinoma cells. The conditions noted are these: reported by Mező; cited from earlier work.

In the case of `COc1cccc2c1C(=O)c1c(O)c3c(c(O)c1C2=O)C[C@@](O)(C(=O)CO)C[C@@H]3O[C@H]1C[C@H](N)[C@H](O)[C@H](C)O1` [DOX, doxorubicin], the half-maximal inhibitory concentration (IC50) was 588 nM with OVCAR-5, 37.2 nM with CCRF-CEM, 60.4 nM in the data set on HOP-62 and 460 nM in the data set with PANC-1.
`COc1cccc2c1C(=O)c1c(O)c3c(c(O)c1C2=O)C[C@@](O)(C(C)=O)C[C@@H]3O[C@H]1C[C@H]2[C@H](OC3CCCN32)[C@H](C)O1` (stereo partly drawn) [PyDau, 2-deamino-2-pyrrolino-daunorubicin]: the “Toxicity when given repeatedly” value in data set [1] is listed as “still toxic”. The IC50 in data set [2] was 0.2 nM.
